Results as given in ChEMBL document CHEMBL1926636, “Isoxazoles incorporated N-substituted decahydroquinolines: a precursor to the next generation antimicrobial drug” (2012).
Values after ≈ are worked out from the molar mass of the structure shown.

Columns and labels:
Candida albicans [1] = experiment: Antifungal activity against Candida albicans PYCC 3436 by twofold serial dilution technique; format: functional
Bacillus subtilis [2] = experiment: Antibacterial activity against Bacillus subtilis ATCC 6631 by twofold serial dilution technique; format: functional
Aspergillus fumigatus [3] = experiment: Antifungal activity against Aspergillus fumigatus ATCC 28212 by twofold serial dilution technique; format: functional
Escherichia coli [4] = experiment: Antibacterial activity against Escherichia coli ATCC 35218 by twofold serial dilution technique; format: functional
Aspergillus fumigatus [5] = experiment: Antifungal activity against Aspergillus fumigatus ATCC 28212 at 10 ug/mL after 72 hrs by agar cup plate method; format: functional; conditions: ATCC 28212, 72 h, read-out: IZ
Candida albicans [6] = experiment: Antifungal activity against Candida albicans PYCC 3436 at 10 ug/mL after 72 hrs by agar cup plate method; format: functional; conditions: PYCC 3436, 72 h, read-out: IZ
Salmonella typhi [7] = experiment: Antibacterial activity against Salmonella typhi ATCC 6539 by twofold serial dilution technique; format: functional, Salmonella enterica subsp. enterica serovar Typhi; conditions: Salmonella enterica
Pseudomonas aeruginosa [8] = experiment: Antibacterial activity against Pseudomonas aeruginosa ATCC 9027 at 10 ug/mL after 24 hrs by disc diffusion method; format: functional; conditions: ATCC 9027, 24 h, read-out: IZ
Aspergillus niger [9] = experiment: Antifungal activity against Aspergillus niger ATCC 16404 at 10 ug/mL after 72 hrs by agar cup plate method; format: functional; conditions: ATCC 16404, 72 h, read-out: IZ
[10] = tested on: Lysinibacillus sphaericus; experiment: Antibacterial activity against Bacillus sphaericus ATCC 7031 by twofold serial dilution technique; format: functional
Escherichia coli [11] = experiment: Antibacterial activity against Escherichia coli ATCC 35218 at 10 ug/mL after 24 hrs by disc diffusion method; format: functional; conditions: ATCC 35218, 24 h, read-out: IZ
Candida albicans [12] = experiment: Antifungal activity against Candida albicans ATCC 90028 at 10 ug/mL after 72 hrs by agar cup plate method; format: functional; conditions: ATCC 90028, 72 h, read-out: IZ
Pseudomonas aeruginosa [13] = experiment: Antibacterial activity against Pseudomonas aeruginosa ATCC 9027 by twofold serial dilution technique; format: functional
Bacillus subtilis [14] = experiment: Antibacterial activity against Bacillus subtilis ATCC 6631 at 10 ug/mL after 24 hrs by disc diffusion method; format: functional; conditions: ATCC 6631, 24 h, read-out: IZ
Aspergillus niger [15] = experiment: Antifungal activity against Aspergillus niger ATCC 16404 by twofold serial dilution technique; format: functional
Staphylococcus aureus [16] = experiment: Antibacterial activity against Staphylococcus aureus ATCC 6538 by twofold serial dilution technique; format: functional
Salmonella typhi [17] = experiment: Antibacterial activity against Salmonella typhi ATCC 6539 at 10 ug/mL after 24 hrs by disc diffusion method; format: functional, Salmonella enterica subsp. enterica serovar Typhi; conditions: Salmonella enterica, ATCC 6539, 24 h; read-out: IZ
Staphylococcus aureus [18] = experiment: Antibacterial activity against Staphylococcus aureus ATCC 6538 at 10 ug/mL after 24 hrs by disc diffusion method; format: functional; conditions: ATCC 6538, 24 h, read-out: IZ
[19] = tested on: Lysinibacillus sphaericus; experiment: Antibacterial activity against Bacillus sphaericus ATCC 7031 at 10 ug/mL after 24 hrs by disc diffusion method; format: functional; conditions: ATCC 7031, 24 h, read-out: IZ
Candida albicans [20] = experiment: Antifungal activity against Candida albicans ATCC 90028 by twofold serial dilution technique; format: functional

## c1ccc(CN2C(c3ccccc3)C3=C(NOC3c3cccnc3)C3CCCCC32)cc1 (stereo not given)
Candida albicans [1]
  MIC99: 12.5 µg/mL (≈ 29.5 µM)
Bacillus subtilis [2]
  MIC99: 100 µg/mL (≈ 236 µM)
Aspergillus fumigatus [3]
  MIC99: 12.5 µg/mL (≈ 29.5 µM)
Escherichia coli [4]
  MIC99: 100 µg/mL (≈ 236 µM)
Aspergillus fumigatus [5]
  zone of inhibition at 10 µg/mL: 6 mm
Candida albicans [6]
  zone of inhibition at 10 µg/mL: 17 mm
Salmonella typhi [7]
  MIC99: 100 µg/mL (≈ 236 µM)
Pseudomonas aeruginosa [8]
  zone of inhibition at 10 µg/mL: 4 mm
Aspergillus niger [9]
  zone of inhibition at 10 µg/mL: 8 mm
[10]
  MIC99: 50 µg/mL (≈ 118 µM)
Escherichia coli [11]
  zone of inhibition at 10 µg/mL: 4 mm
Candida albicans [12]
  zone of inhibition at 10 µg/mL: 17 mm
Pseudomonas aeruginosa [13]
  MIC99: 50 µg/mL (≈ 118 µM)
Bacillus subtilis [14]
  zone of inhibition at 10 µg/mL: 3 mm
Aspergillus niger [15]
  MIC99: > 100 µg/mL
Staphylococcus aureus [16]
  MIC99: 50 µg/mL (≈ 118 µM)
Salmonella typhi [17]
  zone of inhibition at 10 µg/mL: 11 mm
Staphylococcus aureus [18]
  zone of inhibition at 10 µg/mL: 11 mm
[19]
  zone of inhibition at 10 µg/mL: 13 mm
Candida albicans [20]
  MIC99: 50 µg/mL (≈ 118 µM)
